Results as given in ChEMBL document CHEMBL4004838, “Design and synthesis of novel phenyl -1, 4-beta-carboline-hybrid molecules as potential anticancer agents” (Eur J Med Chem, 2017).

Experiments:
Format in all cases: functional
HCT-15 = assay: Growth inhibition of human HCT15 cells assessed as cell growth at 10^-5 M incubated for 48 hrs by sulforhodamine B assay relative to control; settings: HCT-15, 48 h, read-out: Activity
T47D = assay: Growth inhibition of human T47D cells assessed as cell growth at 10^-5 M incubated for 48 hrs by sulforhodamine B assay relative to control; settings: read-out: Activity
TK-10 = assay: Growth inhibition of human TK10 cells assessed as cell growth at 10^-5 M incubated for 48 hrs by sulforhodamine B assay relative to control; settings: TK-10, 48 h, read-out: Activity
BT-549 = assay: Growth inhibition of human BT549 cells assessed as cell growth at 10^-5 M incubated for 48 hrs by sulforhodamine B assay relative to control; settings: BT-549, 48 h, read-out: Activity
KM12 = assay: Growth inhibition of human KM12 cells assessed as cell growth at 10^-5 M incubated for 48 hrs by sulforhodamine B assay relative to control; settings: KM12, 48 h, read-out: Activity
SNB-19 = assay: Growth inhibition of human SNB19 cells assessed as cell growth at 10^-5 M incubated for 48 hrs by sulforhodamine B assay relative to control; settings: SNB-19, 48 h, read-out: Activity
SF-268 = assay: Growth inhibition of human SF268 cells assessed as cell growth at 10^-5 M incubated for 48 hrs by sulforhodamine B assay relative to control; settings: SF-268, 48 h, read-out: Activity
U-251 = assay: Growth inhibition of human U251 cells assessed as cell growth at 10^-5 M incubated for 48 hrs by sulforhodamine B assay relative to control; settings: U-251, 48 h, read-out: Activity
SNB-75 = assay: Growth inhibition of human SNB75 cells assessed as cell growth at 10^-5 M incubated for 48 hrs by sulforhodamine B assay relative to control; settings: SNB-75, 48 h, read-out: Activity
HT-29 = assay: Growth inhibition of human HT-29 cells assessed as cell growth at 10^-5 M incubated for 48 hrs by sulforhodamine B assay relative to control; settings: HT-29, 48 h, read-out: Activity
PC-3 = assay: Growth inhibition of human PC3 cells assessed as cell growth at 10^-5 M incubated for 48 hrs by sulforhodamine B assay relative to control; settings: PC-3, 48 h, read-out: Activity
MOLT-4 = assay: Growth inhibition of human MOLT4 cells assessed as cell growth at 10^-5 M incubated for 48 hrs by sulforhodamine B assay relative to control; settings: MOLT-4, 48 h, read-out: Activity
SK-MEL-5 = assay: Growth inhibition of human SK-MEL-5 cells assessed as cell growth at 10^-5 M incubated for 48 hrs by sulforhodamine B assay relative to control; settings: SK-MEL-5, 48 h, read-out: Activity
Malme-3M = assay: Growth inhibition of human MALME-3M cells assessed as cell growth at 10^-5 M incubated for 48 hrs by sulforhodamine B assay relative to control; settings: read-out: Activity
HCT-116 = assay: Growth inhibition of human HCT116 cells assessed as cell growth at 10^-5 M incubated for 48 hrs by sulforhodamine B assay relative to control; settings: HCT-116, 48 h, read-out: Activity
NCI-H226 = assay: Growth inhibition of human NCI-H226 cells assessed as cell growth at 10^-5 M incubated for 48 hrs by sulforhodamine B assay relative to control; settings: NCI-H226, 48 h, read-out: Activity
NCI/ADR-RES = assay: Growth inhibition of human NCI-ADR-RES cells assessed as cell growth at 10^-5 M incubated for 48 hrs by sulforhodamine B assay relative to control; settings: read-out: Activity
OVCAR-3 = assay: Growth inhibition of human OVCAR3 cells assessed as cell growth at 10^-5 M incubated for 48 hrs by sulforhodamine B assay relative to control; settings: OVCAR-3, 48 h, read-out: Activity
RXF 393 = assay: Growth inhibition of human RXF393 cells assessed as cell growth at 10^-5 M incubated for 48 hrs by sulforhodamine B assay relative to control; settings: RXF 393, 48 h, read-out: Activity
SW-620 = assay: Growth inhibition of human SW620 cells assessed as cell growth at 10^-5 M incubated for 48 hrs by sulforhodamine B assay relative to control; settings: SW-620, 48 h, read-out: Activity
ACHN = assay: Growth inhibition of human ACHN cells assessed as cell growth at 10^-5 M incubated for 48 hrs by sulforhodamine B assay relative to control; settings: read-out: Activity
NCI-H23 = assay: Growth inhibition of human NCI-H23 cells assessed as cell growth at 10^-5 M incubated for 48 hrs by sulforhodamine B assay relative to control; settings: NCI-H23, 48 h, read-out: Activity
Hs-578T = assay: Growth inhibition of human Hs 578T cells assessed as cell growth at 10^-5 M incubated for 48 hrs by sulforhodamine B assay relative to control; settings: read-out: Activity
HL-60(TB) = assay: Growth inhibition of human HL-60(TB) cells assessed as cell growth at 10^-5 M incubated for 48 hrs by sulforhodamine B assay relative to control; settings: HL-60, 48 h, read-out: Activity
EKVX = assay: Growth inhibition of human EKVX cells assessed as cell growth at 10^-5 M incubated for 48 hrs by sulforhodamine B assay relative to control; settings: read-out: Activity
OVCAR-5 = assay: Growth inhibition of human OVCAR5 cells assessed as cell growth at 10^-5 M incubated for 48 hrs by sulforhodamine B assay relative to control; settings: OVCAR-5, 48 h, read-out: Activity
IGROV-1 = assay: Growth inhibition of human IGROV1 cells assessed as cell growth at 10^-5 M incubated for 48 hrs by sulforhodamine B assay relative to control; settings: IGROV-1, 48 h, read-out: Activity
UACC-257 = assay: Growth inhibition of human UACC257 cells assessed as cell growth at 10^-5 M incubated for 48 hrs by sulforhodamine B assay relative to control; settings: UACC-257, 48 h, read-out: Activity

SMILES	growth at 10 µM (HCT-15) [%]	growth at 10 µM (T47D) [%]	growth at 10 µM (TK-10) [%]	growth at 10 µM (BT-549) [%]	growth at 10 µM (KM12) [%]	growth at 10 µM (SNB-19) [%]	growth at 10 µM (SF-268) [%]	growth at 10 µM (U-251) [%]	growth at 10 µM (SNB-75) [%]	growth at 10 µM (HT-29) [%]	growth at 10 µM (PC-3) [%]	growth at 10 µM (MOLT-4) [%]	growth at 10 µM (SK-MEL-5) [%]	growth at 10 µM (Malme-3M) [%]	growth at 10 µM (HCT-116) [%]	growth at 10 µM (NCI-H226) [%]	growth at 10 µM (NCI/ADR-RES) [%]	growth at 10 µM (OVCAR-3) [%]	growth at 10 µM (RXF 393) [%]	growth at 10 µM (SW-620) [%]	also measured
c1ccc2[nH]c(-c3ccc(C4NCCc5c4[nH]c4ccccc54)cc3)nc2c1 (stereo unspecified)	107	90.8	94.6	93.2	103	100	98.6	93.4	89	94.2	85	107	96.5	90	96.1	93.5	109	107	94.2	99.1	growth at 10 µM (ACHN): 102%; growth at 10 µM (NCI-H23): 102%; growth at 10 µM (Hs-578T): 93.9%; growth at 10 µM (HL-60(TB)): 97.9%; growth at 10 µM (EKVX): 103%; growth at 10 µM (OVCAR-5): 94.2%
Cc1n[nH]c2c1C(c1ccc(C3NCCc4c3[nH]c3ccccc43)cc1)C(C#N)=C(N)O2 (stereo unspecified)	87.7	75.2	101	81.8	91.9	94.2	92.9	87.5	70.4	91.7	72.3	81.1	89.4	77	76.5	87	96.3	96.6	99.2	89.9	growth at 10 µM (ACHN): 83.5%; growth at 10 µM (NCI-H23): 87.7%; growth at 10 µM (Hs-578T): 87.7%; growth at 10 µM (HL-60(TB)): 101%; growth at 10 µM (EKVX): 83.6%; growth at 10 µM (OVCAR-5): 87.4%
Cc1ccc(S(=O)(=O)N2CCc3c([nH]c4ccccc34)C2c2ccc(-c3nc4ccccc4[nH]3)cc2)cc1 (stereo unspecified)	94.3	89.1	98	77.1	86.8	91.3	91.3	98	74	87.2	84.2	95.9	89.8	89.7	88.3	86.4	88.9	93.5	96.4	90.1	growth at 10 µM (IGROV-1): 86.5%; growth at 10 µM (UACC-257): 102%; growth at 10 µM (ACHN): 79.1%; growth at 10 µM (NCI-H23): 85.7%; growth at 10 µM (Hs-578T): 89.2%; growth at 10 µM (HL-60(TB)): 105%; growth at 10 µM (EKVX): 87.4%; growth at 10 µM (OVCAR-5): 78.7%
O=Cc1ccc(C2NCCc3c2[nH]c2ccccc32)cc1 (stereo unspecified)	101	92.3	115	90.1	107	100	101	95.3	77.8	98.9	84.3	95.5	93	100	78.4	78.2	107	99.7	99.6	88.8	growth at 10 µM (ACHN): 95%; growth at 10 µM (NCI-H23): 87.1%; growth at 10 µM (Hs-578T): 90.5%; growth at 10 µM (HL-60(TB)): 89.4%; growth at 10 µM (EKVX): 89.6%; growth at 10 µM (OVCAR-5): 100%
